Assay results taken from ChEMBL document CHEMBL1201862, “PubChem BioAssay data set” (2004).
Calls of active or inactive are those of the source.

Assays:
[1] = target: T1, Microphthalmia-associated transcription factor (Homo sapiens, UniProt O75030); assay: reducers of TRPM1 reporter luminescence, concentration series – cell-based, SK-MEL-5, cherry-picked, set 3, MITF inhibitor project, dose response (AID 493073); assay type: functional;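 also: SK-MEL-5 melanoma cells with luciferase driven by the MITF target TRPM1 promoter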
T1 sequence (O75030 whole entry): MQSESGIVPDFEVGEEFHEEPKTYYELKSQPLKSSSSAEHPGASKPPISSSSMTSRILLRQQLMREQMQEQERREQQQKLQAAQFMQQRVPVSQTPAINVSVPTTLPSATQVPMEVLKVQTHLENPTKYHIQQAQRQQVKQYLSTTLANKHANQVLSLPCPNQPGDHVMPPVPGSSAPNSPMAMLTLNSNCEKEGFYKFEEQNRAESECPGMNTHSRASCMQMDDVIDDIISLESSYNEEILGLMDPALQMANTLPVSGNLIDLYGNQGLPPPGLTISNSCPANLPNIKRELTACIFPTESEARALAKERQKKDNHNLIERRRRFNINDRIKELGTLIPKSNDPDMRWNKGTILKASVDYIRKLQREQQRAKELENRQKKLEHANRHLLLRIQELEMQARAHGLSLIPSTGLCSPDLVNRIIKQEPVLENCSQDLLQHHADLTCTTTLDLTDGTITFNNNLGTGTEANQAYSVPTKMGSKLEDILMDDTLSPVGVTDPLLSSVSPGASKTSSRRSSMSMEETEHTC

[2] = target: T2, Mannose-6-phosphate isomerase (Homo sapiens, UniProt P34949); assay: MPI inhibition at elevated mannose 6-phosphate – biochemical, fluorescence intensity, high mannose 6-phosphate, primary screen (AID 1220)
T2 sequence (P34949 whole entry): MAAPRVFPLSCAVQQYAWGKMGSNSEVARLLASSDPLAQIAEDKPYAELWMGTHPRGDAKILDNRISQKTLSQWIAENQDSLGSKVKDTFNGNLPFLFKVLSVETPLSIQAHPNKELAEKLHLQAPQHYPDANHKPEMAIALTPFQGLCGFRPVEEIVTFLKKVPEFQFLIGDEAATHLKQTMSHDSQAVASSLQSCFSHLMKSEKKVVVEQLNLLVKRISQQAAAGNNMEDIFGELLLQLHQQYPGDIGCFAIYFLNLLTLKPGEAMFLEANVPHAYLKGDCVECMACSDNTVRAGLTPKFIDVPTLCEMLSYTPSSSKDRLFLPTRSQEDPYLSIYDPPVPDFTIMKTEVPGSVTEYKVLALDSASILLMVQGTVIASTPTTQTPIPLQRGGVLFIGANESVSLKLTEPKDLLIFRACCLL

[3] = NIH-3T3 fibroblast cytotoxicity, dose response, cytotoxicity control, cell-based, fluorescence, Alamar Blue, secondary assay (AID 2327); assay type: functional;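 also: NIH-3T3 mouse fibroblasts cultured with fluconazole at 8 µg/mL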
CAAX prenyl protease 1 = CAAX prenyl protease 1 (Saccharomyces cerevisiae S288c, UniProt P47154); assay: yeast CAAX protease Ste24 inhibition – biochemical, S. cerevisiae, plate reader, cherry-pick, dose response (AID 488815)
CAAX prenyl protease 2 = target: T3, CAAX prenyl protease 2 (Saccharomyces cerevisiae S288c, UniProt Q03530); assay type: biochemical
T3 sequence (Q03530 whole entry): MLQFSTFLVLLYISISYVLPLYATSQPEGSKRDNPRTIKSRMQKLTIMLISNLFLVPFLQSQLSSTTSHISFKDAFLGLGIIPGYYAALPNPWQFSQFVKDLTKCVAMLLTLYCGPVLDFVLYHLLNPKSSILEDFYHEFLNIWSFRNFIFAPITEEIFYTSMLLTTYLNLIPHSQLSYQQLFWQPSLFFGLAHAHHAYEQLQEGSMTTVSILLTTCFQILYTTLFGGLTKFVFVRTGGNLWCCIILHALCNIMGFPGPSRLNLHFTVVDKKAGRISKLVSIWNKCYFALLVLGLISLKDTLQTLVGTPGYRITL

[4] = target: Leucine-rich repeat serine/threonine-protein kinase 2 (Homo sapiens, UniProt Q5S007); assay type: functional;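 also: value from a broad kinome-wide panel profiling study in which LRRK2 was one of the kinases tested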
[5] = target: Cyclin-dependent kinase 8 (Homo sapiens, UniProt P49336); assay: Navigating the Kinome. Panel member name: CDK8; assay type: functional
[6] = target: Dual specificity mitogen-activated protein kinase kinase 2 (Homo sapiens, UniProt P36507); assay: Navigating the Kinome. Panel member name: MAP2K2; assay type: functional
Chain of Dual specificity mitogen-activated protein kinase kinase 2 (P36507 whole entry): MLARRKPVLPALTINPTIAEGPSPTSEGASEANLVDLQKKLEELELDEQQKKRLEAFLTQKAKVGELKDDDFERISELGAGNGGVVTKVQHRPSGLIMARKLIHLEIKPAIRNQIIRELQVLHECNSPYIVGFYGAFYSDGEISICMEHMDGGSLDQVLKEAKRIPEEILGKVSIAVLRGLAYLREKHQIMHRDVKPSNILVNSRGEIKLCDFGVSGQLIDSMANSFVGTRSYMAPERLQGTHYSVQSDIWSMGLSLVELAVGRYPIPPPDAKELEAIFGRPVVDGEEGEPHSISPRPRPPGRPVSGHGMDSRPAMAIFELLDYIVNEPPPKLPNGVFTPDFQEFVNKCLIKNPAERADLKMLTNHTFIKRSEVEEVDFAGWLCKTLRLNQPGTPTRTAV

[7] = target: Serine/threonine-protein kinase pim-1 (Homo sapiens, UniProt P11309); assay type: functional
Chain of Serine/threonine-protein kinase pim-1 (P11309 whole entry): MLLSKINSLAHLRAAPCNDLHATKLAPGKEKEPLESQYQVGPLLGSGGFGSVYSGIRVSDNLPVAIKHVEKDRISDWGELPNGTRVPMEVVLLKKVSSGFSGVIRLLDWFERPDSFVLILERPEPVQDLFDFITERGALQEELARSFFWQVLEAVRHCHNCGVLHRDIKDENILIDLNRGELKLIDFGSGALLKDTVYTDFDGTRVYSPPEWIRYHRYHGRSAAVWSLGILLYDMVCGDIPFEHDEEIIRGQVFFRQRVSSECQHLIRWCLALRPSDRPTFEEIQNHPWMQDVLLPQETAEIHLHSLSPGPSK

[8] = target: Tyrosine-protein kinase ABL1 (Homo sapiens, UniProt P00519); assay type: functional
Chain of Tyrosine-protein kinase ABL1 (P00519 whole entry, canonical isoform): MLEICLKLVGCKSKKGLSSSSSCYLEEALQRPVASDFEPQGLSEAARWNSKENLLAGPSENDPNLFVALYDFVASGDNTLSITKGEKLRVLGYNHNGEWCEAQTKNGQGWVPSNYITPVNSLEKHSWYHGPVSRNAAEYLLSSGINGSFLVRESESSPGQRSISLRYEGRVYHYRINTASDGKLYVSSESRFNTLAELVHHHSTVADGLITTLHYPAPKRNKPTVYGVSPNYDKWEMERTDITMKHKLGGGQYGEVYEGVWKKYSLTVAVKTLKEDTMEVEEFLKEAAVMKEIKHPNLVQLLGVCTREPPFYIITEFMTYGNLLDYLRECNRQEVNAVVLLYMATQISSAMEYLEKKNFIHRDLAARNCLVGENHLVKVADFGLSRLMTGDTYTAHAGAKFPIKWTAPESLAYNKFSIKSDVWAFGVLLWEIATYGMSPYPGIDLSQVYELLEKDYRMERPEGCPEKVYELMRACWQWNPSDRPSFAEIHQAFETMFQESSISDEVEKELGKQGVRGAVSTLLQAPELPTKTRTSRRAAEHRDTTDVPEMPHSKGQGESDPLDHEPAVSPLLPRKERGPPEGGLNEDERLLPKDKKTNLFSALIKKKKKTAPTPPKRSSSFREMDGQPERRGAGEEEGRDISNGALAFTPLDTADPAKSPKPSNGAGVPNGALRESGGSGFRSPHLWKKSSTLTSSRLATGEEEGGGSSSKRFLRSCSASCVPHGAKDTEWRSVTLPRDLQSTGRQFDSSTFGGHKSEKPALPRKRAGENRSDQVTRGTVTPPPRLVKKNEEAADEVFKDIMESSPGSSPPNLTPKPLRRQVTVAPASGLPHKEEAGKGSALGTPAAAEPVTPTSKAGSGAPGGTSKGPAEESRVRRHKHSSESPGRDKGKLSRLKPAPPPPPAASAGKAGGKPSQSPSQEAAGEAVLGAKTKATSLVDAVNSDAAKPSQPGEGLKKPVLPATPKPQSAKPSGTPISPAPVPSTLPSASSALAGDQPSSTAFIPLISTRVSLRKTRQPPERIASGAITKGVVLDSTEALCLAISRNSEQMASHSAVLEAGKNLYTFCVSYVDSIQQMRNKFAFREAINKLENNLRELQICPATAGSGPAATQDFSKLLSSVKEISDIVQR

[9] = target: Casein kinase I isoform gamma-1 (Homo sapiens, UniProt Q9HCP0); assay type: functional;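 also: measured as the CSNK1G1 member of a kinome profiling panel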
Chain of Casein kinase I isoform gamma-1 (Q9HCP0 whole entry, canonical isoform): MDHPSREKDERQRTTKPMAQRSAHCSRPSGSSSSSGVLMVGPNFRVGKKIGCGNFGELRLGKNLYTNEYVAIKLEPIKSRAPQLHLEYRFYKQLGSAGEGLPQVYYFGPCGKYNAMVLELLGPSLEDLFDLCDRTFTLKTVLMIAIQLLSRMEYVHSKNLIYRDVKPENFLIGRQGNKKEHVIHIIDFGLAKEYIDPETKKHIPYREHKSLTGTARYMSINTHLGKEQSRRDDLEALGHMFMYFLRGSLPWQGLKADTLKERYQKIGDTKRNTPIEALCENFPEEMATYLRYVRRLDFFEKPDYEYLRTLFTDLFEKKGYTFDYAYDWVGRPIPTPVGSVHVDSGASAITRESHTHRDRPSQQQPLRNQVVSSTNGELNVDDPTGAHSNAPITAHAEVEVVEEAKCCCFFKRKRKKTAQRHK

[10] = target: Fibroblast growth factor receptor 3 (Homo sapiens, UniProt P22607); assay type: functional
[11] = target: Casein kinase II subunit alpha (Homo sapiens, UniProt P68400); assay type: functional
Chain of Casein kinase II subunit alpha (P68400 whole entry): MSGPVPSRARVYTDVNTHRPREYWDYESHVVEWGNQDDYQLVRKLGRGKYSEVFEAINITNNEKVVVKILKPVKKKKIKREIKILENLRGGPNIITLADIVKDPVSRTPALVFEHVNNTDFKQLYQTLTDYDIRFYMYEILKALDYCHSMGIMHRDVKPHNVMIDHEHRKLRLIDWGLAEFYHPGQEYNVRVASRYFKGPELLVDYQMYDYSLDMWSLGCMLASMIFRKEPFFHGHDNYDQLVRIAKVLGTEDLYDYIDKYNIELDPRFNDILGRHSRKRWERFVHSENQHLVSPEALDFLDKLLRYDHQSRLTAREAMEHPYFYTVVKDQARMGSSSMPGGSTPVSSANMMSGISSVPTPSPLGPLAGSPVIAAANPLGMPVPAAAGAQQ

[12] = target: Receptor tyrosine-protein kinase erbB-2 (Homo sapiens, UniProt P04626); assay: Navigating the Kinome. Panel member name: ERBB2; assay type: functional
[13] = target: RAC-gamma serine/threonine-protein kinase (Homo sapiens, UniProt Q9Y243); assay type: functional
[14] = target: Mitogen-activated protein kinase 13 (Homo sapiens, UniProt O15264); assay type: functional
Chain of Mitogen-activated protein kinase 13 (O15264 whole entry): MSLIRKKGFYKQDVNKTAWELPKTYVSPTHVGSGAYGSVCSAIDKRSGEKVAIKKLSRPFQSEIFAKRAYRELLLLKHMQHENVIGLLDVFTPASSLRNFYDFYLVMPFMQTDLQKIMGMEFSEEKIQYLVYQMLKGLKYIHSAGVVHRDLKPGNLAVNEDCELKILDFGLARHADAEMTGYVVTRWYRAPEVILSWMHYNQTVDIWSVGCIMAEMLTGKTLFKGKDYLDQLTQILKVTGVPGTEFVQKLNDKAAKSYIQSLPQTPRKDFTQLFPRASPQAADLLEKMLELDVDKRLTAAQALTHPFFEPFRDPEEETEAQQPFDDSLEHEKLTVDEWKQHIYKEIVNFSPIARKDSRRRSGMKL

[15] = target: Serine/threonine-protein kinase Nek2 (Homo sapiens, UniProt P51955); assay type: functional
[16] = target: Mast/stem cell growth factor receptor Kit (Homo sapiens, UniProt P10721); assay type: functional;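 also: KIT entry within a kinase panel assay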
[17] = target: Calcium/calmodulin-dependent protein kinase type II subunit delta (Homo sapiens, UniProt Q13557); assay type: functional
[18] = target: Serine/threonine-protein kinase Chk2 (Homo sapiens, UniProt O96017); assay type: functional;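 also: CHEK2 entry within a kinome-wide screening panel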
Ephrin type-A receptor 2 = Ephrin type-A receptor 2 (Homo sapiens, UniProt P29317); assay type: functional;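 also: EPHA2 tested as one member of a kinome-wide kinase panel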
Chain of Ephrin type-A receptor 2 (P29317 whole entry): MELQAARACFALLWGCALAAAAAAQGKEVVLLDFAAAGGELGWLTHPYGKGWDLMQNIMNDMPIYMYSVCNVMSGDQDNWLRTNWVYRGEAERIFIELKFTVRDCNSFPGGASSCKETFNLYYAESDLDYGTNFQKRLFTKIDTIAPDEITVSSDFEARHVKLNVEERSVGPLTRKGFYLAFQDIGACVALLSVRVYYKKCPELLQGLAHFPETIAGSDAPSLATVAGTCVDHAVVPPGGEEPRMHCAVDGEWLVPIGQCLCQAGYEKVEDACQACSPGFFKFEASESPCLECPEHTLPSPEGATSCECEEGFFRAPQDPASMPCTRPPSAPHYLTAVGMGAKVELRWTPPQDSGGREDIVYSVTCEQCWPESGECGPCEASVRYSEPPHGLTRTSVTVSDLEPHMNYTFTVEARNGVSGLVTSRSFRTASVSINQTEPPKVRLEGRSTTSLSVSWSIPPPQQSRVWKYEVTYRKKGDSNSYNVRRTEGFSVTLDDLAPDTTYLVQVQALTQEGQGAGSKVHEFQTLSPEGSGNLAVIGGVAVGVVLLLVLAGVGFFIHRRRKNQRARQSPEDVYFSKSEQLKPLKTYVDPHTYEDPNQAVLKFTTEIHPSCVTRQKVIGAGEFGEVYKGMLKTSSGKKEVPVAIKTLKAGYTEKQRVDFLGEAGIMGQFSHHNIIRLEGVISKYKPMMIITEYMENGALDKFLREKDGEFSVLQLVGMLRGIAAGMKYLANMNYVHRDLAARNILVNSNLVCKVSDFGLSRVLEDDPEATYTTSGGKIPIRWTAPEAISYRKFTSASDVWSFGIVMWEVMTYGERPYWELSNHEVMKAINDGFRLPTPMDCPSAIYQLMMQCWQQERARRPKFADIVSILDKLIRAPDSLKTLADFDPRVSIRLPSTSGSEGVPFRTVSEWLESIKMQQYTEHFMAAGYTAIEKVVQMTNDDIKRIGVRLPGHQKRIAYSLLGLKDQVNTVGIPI

[19] = target: Serine/threonine-protein kinase BRSK1 (Homo sapiens, UniProt Q8TDC3); assay type: functional;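 also: measured within a kinome-wide kinase panel, with the target listed as KIAA1811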
[20] = target: Tyrosine-protein kinase Srms (Homo sapiens, UniProt Q9H3Y6); assay type: functional;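 also: SRMS measured as one member of a kinome-wide kinase profiling panel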
Chain of Tyrosine-protein kinase Srms (Q9H3Y6 whole entry): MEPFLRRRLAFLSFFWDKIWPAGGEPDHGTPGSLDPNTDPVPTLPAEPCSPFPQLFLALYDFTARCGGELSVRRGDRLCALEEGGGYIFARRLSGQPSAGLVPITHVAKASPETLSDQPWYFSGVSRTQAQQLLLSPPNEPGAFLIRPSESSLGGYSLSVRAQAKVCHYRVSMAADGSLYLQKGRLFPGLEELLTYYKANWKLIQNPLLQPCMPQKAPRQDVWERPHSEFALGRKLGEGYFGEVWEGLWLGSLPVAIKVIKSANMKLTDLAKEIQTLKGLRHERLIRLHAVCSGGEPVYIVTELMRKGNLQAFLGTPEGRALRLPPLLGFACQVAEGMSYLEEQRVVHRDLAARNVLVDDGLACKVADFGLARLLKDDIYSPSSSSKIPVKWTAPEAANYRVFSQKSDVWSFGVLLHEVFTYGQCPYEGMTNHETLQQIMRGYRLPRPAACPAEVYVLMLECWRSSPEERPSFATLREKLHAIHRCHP

[21] = target: Receptor-type tyrosine-protein kinase FLT3 (Homo sapiens, UniProt P36888); assay type: functional;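 also: FLT3 was tested as one member of a kinome-wide kinase panel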
[22] = target: MAP kinase-activated protein kinase 2 (Homo sapiens, UniProt P49137); assay type: functional;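 also: measured as one member of a kinome-wide kinase panel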
Chain of MAP kinase-activated protein kinase 2 (P49137 whole entry): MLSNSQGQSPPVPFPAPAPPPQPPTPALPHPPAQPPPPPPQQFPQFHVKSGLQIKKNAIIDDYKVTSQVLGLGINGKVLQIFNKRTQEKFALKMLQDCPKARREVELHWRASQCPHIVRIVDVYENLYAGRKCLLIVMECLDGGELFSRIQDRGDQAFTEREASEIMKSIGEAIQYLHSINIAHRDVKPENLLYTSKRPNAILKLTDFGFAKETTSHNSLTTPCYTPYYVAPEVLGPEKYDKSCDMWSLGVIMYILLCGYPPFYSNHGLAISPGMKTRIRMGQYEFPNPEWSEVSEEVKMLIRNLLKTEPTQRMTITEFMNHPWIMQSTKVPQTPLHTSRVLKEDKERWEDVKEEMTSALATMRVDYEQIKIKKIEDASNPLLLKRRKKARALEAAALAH

[23] = target: Tyrosine-protein kinase FRK (Homo sapiens, UniProt P42685); assay type: functional;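 also: FRK tested as one member of a kinome panel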
[24] = Luminescence Cell-Based Dose Response HTS to Identify Activators of Luciferase Translation or Activity in H4 […] Cells. [Related pubchem assays: 1829 (Project Summary), 1814 (Primary HTS)]; assay type: functional

In the case of Cc1cc(C)c[n+](C2=C([N-]S(=O)(=O)c3cccs3)C(=O)c3ccccc3C2=O)c1, the AC50 [1] is reported as 2.95 µM (active) and the IC50 [2] is reported as > 50 µM (not active).
For CCCCCCCCCCC[N+](C)(C)CC/C=C1/c2ccccc2Sc2ccc(Cl)cc21, the EC50 [3] was > 150 µM (inconclusive), the AC50 (CAAX prenyl protease 1) was 7.07 µM (active) and the AC50 (CAAX prenyl protease 2) was 6.5 µM (active).
In the case of CCn1c(-c2nonc2N)nc2cncc(C(=O)N3CCC(N)C3)c21 (configuration not stated), the Ki [4] is reported as 0.631 µM (active), the Ki [5] is reported as 3.98 µM (active) and the Ki [6] is reported as > 3.98 µM (inactive). For the same molecule, the Ki [7] was 0.02 µM (active).
With Cc1[nH]nc2ccc(-c3cncc(OCC(N)Cc4c[nH]c5ccccc45)c3)cc12 (configuration not stated) the Ki [8] was > 0.631 µM (inactive), the Ki [9] was 0.0398 µM (active) and the Ki [10] was > 2 µM (inactive). For the same molecule, the Ki [11] was > 6.31 µM (inactive), the Ki [12] was > 1.58 µM (inactive) and the Ki [13] was 0.00631 µM (active). The Ki [14] was 1.58 µM (active), the Ki [15] was > 10 µM (inactive) and the Ki [16] was > 1.26 µM (inactive). For the same molecule, the Ki [17] was 0.0158 µM (active), the Ki [18] was 0.501 µM (active) and the Ki (Ephrin type-A receptor 2) was > 3.16 µM (inactive). For the same molecule, the Ki [19] was 3.98 µM (active), the Ki [20] was > 1.58 µM (inactive) and the Ki [21] was 0.316 µM (active). The Ki [22] was 2.51 µM (active) and the Ki [23] was > 2.51 µM (inactive).
For COC(=O)c1ccccc1NC1=C/C(=N\S(=O)(=O)c2cccs2)c2ccccc2C1=O, the EC50 [24] was > 120 µM (not active).
